Data taken from patent publication US6197774A, “Pyrimidine derivative” (Otsuka Pharmaceutical Co., Ltd., priority 1997, dated 2001).

Legend:
[1] = test system: formation of NO in cell strain RAW 264.7; assay: Activity for inhibiting the formation of NO (LPS-stimulated RAW 264.7 cells, Griess reagent); type: cell-based; conditions: Mus musculus, RAW264.7, 1 × 10^-6 M, LPS 100 ng/ml, 24 hours, read-out: Ratio of formed amount of NO (reference culture medium = 100)
Description: [Evaluation test of activity for inhibiting the formation of NO]
Pharmacological tests of pyrimidine derivatives obtained in Examples 1, 12, 14, 19, 22, 24, 29 and 42 used as test compounds were conducted as follows.
Preparation of culture media and method of cell culture were conducted in accordance with those described in J. Biol. Chem., Vol. 269, No. 1, pp. 711-715, (1994), and determination of formed amount of NO was conducted in accordance with the method described in Anal. Biochem., Vol. 126, pp. 131-138, (1982), respectively.
(1) Cell Culture and Inducible Synthesis of NO in the Cells by Stimulation with Lipopolysaccharide (LPS)
Cell strain RAW 264.7 (ATCC) derived from the macrophage of mouse was placed on each one of the wells on a microplate having 24-wells so as to put the cells in an amount of 1×10^5 cells/U (well). The cells were incubated for 24 hours in a phenol red free-RPMI-1640 culture medium (mfd. by GIBCO) to which 10% of fetal bovine serum, 100 U/ml of penicillin (mfd. by Dainippon Pharmaceutical Co., Ltd.) and 100 μg/ml of streptomycin (mfd. by Dainippon Pharmaceutical Co., Ltd.) were added.
Next, the reference culture medium was prepared by adding 2 mM of L-arginine (mfd. by Wako Pure Chemical Industries, Ltd.), 10 μM/ml of tetrahydrobiopterin (mfd. by ALEXIS) and 100 ng/ml of lipopolysaccharide (LPS)(mfd. by Sigma Chemical Co.) to a phenol red free-RPMI-1640 culture medium. While, the reference culture medium without containing LPS was used as the blanc culture medium.
On the other hand, the test culture medium, containing the test compound was prepared by adding 0.2% of the test compounds dissolved in dimethyl sulfoxide (DMSO) to the reference culture medium to adjust the final concentration of the test compound to 1×10^-6 M.
Each one of the blank culture medium, reference culture medium and test culture medium containing the test compound was added, respectively to the well on the micro-plate where the above-mentioned cell strain RAW 264.7 was placed, and was incubated for 24 hours.
(2) Measurement of the Amount of Formed NO
Quantitative measurement of NO cannot be made directly, due to its unstability. Therefore, the amount of NO is measured indirectly, thus by forming nitrous acid ion (hereunder referred to as NO2^-) which is stable product derived from NO by use of Griess reagent [consisting of 1% of sulfanylamide and 0.1% of sulfuric acid solution containing 0.1% N-(1-naphthyl)ethylenediamine dihydrochloride], and measure the amount of NO2^-.
Into the supernatant of each one of the culture media was admixed with the same amount of Griess reagent respectively, and subjected to reaction at room temperature for 10 minutes, then the optical absorbance at 540 nm of the thus reacted culture medium was measured. While, the optical absorbance of sodium nitrite solution diluted with the culture medium was referred to as the standard value, and the amount of NO2^- formed in each one of these incubated culture media was measured. The amounts of NO2^- formed in the reference culture medium and the test culture medium were corrected by using the value of formed amount of NO2^- in the blanc culture medium.
On the basis of that the ratio of amounts of NO2^- formed in the reference culture medium and that of formed in the test culture medium is corresponding to the ratio of amount of NO formed in the reference culture medium and that of formed in the test culture medium. Thus the amount of NO2^- formed in the reference culture medium is referred to as the value of 100, and the value of amount of NO2^- formed in the test culture medium is referred to as amount of NO formed in the test culture medium.

[2] = Toxicity of compound against the cell strain RAW 264.7 (MTT); type: cell-based; conditions: mouse, raw 264.7 cells, 1 × 10^-6 M, read-out: Ratio of optical absorbance
Description: [Toxicity test (Toxicity of compound against the cell strain RAW 264.7)]
Test was conducted in accordance with the method as described in J. Immunol. Methods, Vol. 94, pp. 57-68, (1986). Cell strain RAW 264.7 derived from the macrophage of mouse was incubated similarly as in the method of Test Example 1(1). After that, MTT reagent (5 mg/ml) in 1/10 amount of the culture medium was added to the cells, and incubated for 4 hours. The supernatant of culture medium was taken off, then the cells were collected by using 1% SDS solution and the optical absorbance at 570-630 nm of the SDS solution was measured.

late asthmatic response = assay: Model experiment of asthma in guinea pigs (inhibition of late asthmatic response); type: in vivo, guinea pig; conditions: control 112 ± 17.8
Description: [Model experiment of asthma in guinea pigs. (Inhibition of late asthmatic response)]
Hartley strain female guinea pigs (SLC) having the body weight of about 350 g were used and 50 mg/Kg of cyclophosphamide (mfd. by Sigma Chemical Co.) was injected intraperitoneally. 2 Days after this pretreatment by injection, 1 mg of egg albumin (mfd. by Sigma Chemical Co.) and 100 mg of aluminum hydroxide (Wako Pure Chemical Industries Co., Ltd.) were injected intraperitoneally for sensitization. 3 Weeks after the sensitization, 10 μg of egg albumin and 100 mg of aluminum hydroxide were injected intraperitoneally for booster sensitization. 6 Weeks after the primary sensitization, asthma attach was induced by inhalation and exposure to egg albumin (4 mg/ml) by using a nebulizer (NE-U12: mfd. by Omron Corp.). The asthma reaction was determined by use of a body-plethysmography (using system developed by Uchida lecturer in internal department for respiratory organs at Tsukuba University; air-resist tube, respiratory amplifier and differential pressure transducer (mfd. by Nihon Koden); and osciloscope (mfd. by Iwasaki Tsushin)), so as to determine a […] of specific airway conductance (sGaw) under the condition without anesthesia. The sGaw value just before the administration of test comopound was measured and the value is referred to as 100. Test compound was suspended in 1% HPMC (hydroxymethylpropylcellulose mfd. by Shinetsu Chemical), and was administered orally 30 minutes before the exposure with the antigen. Then, sGaw value was measured in each points until 7 hours after the exposure with the antigen.

contact hypersensitivity = assay: Contact hypersensitivity model in mouse (atopic dermatitis model); type: in vivo; conditions: po, 30 minutes before causal induction, 24 hours, read-out: Control % (intumescence of the pinna, untreated = 100); for response vs control in vivo at 20 mg/kg: 20 mg/Kg p.o.; for response vs control in vivo at 3 mg/kg: 3 mg/Kg p.o.
Description: [Contact hypersensitivity model in mouse (Atopic dermatisis model)]
Test was conducted by referring to the method as described in "HIFU (a Japanese journal of dermatology)" Vol. 35, Supplemental Issue No. 15, pp. 96-106, published on March 1993.
CBA/J strain mice of 6-8 week age were used as the test animals (6-8 mice in one group). The mouse was sensitized by coating 150 μl of 5% of picryl chloride [dissolved in a mixture of acetone with olive oil (1:4)] on the shaved portion of skin in the back of mouse. […] 24 Hours after the causal induction, the effect for inhibiting contact hypersensitivity performed by the test compounds were evaluated by referring to the action for inhibiting intumescence of the pinna as an indication. The test compound was orally administered 30 minutes before the causal induction.
The following compounds were used for the test.
1) Compounds of the Present Invention:
(Dosage: 20 mg/Kg p.o., which is 7-10 times larger amount of dosages for compounds of the present invention)
The value obtained from the sensitization test without administration of the test compound was referred to as 100, and by comparing with the values obtained from the sensitization test with administration of the test compound was referred to "% control" values.

## COCc1cc(=O)n2nc(COC)c(-c3ccc(Sc4ccccc4)cc3)c2[nH]1 [Example 42, 2,5-bis(methoxymethyl)-4,7-dihydro-7-oxo-3-(4-phenylthiophenyl)pyrazolo[1,5-a]-pyrimidine]
[1]
  activity at 1 µM: 55.4%

## O=c1cc(COc2ccccc2)[nH]c2c(-c3ccc(Sc4ccccc4)cc3)cnn12 [Example 12, 4,7-dihydro-7-oxo-5-phenoxymethyl-3-(4-phenylthiophenyl)pyrazolo[1,5-a]pyrimidine]
[1]
  activity at 1 µM: 67%
[2]
  viability at 1 µM: 103%

## Oc1ccnc2c(-c3ccc(Sc4ccccc4)cc3)cnn12 [(8), 7-Hydroxy-3-(4-phenylthiophenyl)pyrazolo[1,5-a]pyrimidine]
Late asthmatic response; 39 mg/Kg (so in the source) orally 30 minutes before antigen, 3 animals
  AUC (4-7 hours) of sGaw reaction: 127.9 ± 45.4
Contact hypersensitivity
  response vs control in vivo at 20 mg/kg: 100%

## CSCc1cc(=O)n2ncc(-c3ccc(Sc4ccccc4)cc3)c2[nH]1 [Example 29, 4,7-dihydro-5-methylthiomethyl-7-oxo-3-(4-phenylthiophenyl)pyrazolo[1,5-a]pyrimidine]
[1]
  activity at 1 µM: 52.2%
[2]
  viability at 1 µM: 89.7%

## COc1cc(-c2c(-c3ccccn3)nn3c(O)cc(C)nc23)ccc1Sc1ccccc1 [(6), 7-Hydroxy-5-methyl-3-(3-methoxy-4-phenylthiophenyl)-2-(2-pyridyl)pyrazolo[1,5-a]pyrimidine]
Contact hypersensitivity
  response vs control in vivo at 20 mg/kg: 94.7%

## COCc1nn2c(O)ccnc2c1-c1ccc(Sc2ccccc2)cc1 [(3), 7-Hydroxy-2-methoxymethyl-3-(4-phenylthiophenyl)pyrazolo[1,5-a]pyrimidine]
Contact hypersensitivity
  response vs control in vivo at 20 mg/kg: 104%

## COC(OC)c1cc(=O)n2ncc(-c3ccc(Sc4ccccc4)cc3)c2[nH]1 [Example 24, 4,7-dihydro-5-dimethoxymethyl-7-oxo-3-(4-phenylthiophenyl)pyrazolo[1,5-a]pyrimidine]
[1]
  activity at 1 µM: 67.3%
[2]
  viability at 1 µM: 108%

## Oc1ccnc2c(-c3cccc(C(F)(F)F)c3)cnn12 [(5), 7-Hydroxy-3-(3-trifluoromethylphenyl)pyrazolo [1,5-a]pyrimidine]
Contact hypersensitivity
  response vs control in vivo at 20 mg/kg: 90.4%

## CC(C)(C)OCCOCc1cc(=O)n2ncc(-c3ccc(Sc4ccccc4)cc3)c2[nH]1 [Example 15, 5-(2-t-butoxyethoxymethyl)-4,7-dihydro-7-oxo-3-(4-phenylthiophenyl)pyrazolo[1,5-a]pyrimidine]
Contact hypersensitivity
  response vs control in vivo at 3 mg/kg: 46.3%

## O=c1cc(C2CCCO2)[nH]c2c(-c3ccc(Sc4ccccc4)cc3)cnn12 (stereo not drawn) [Example 19, 4,7-dihydro-7-oxo-3-(4-phenylthiophenyl)-5-(tetrahydrofuran-2-yl)pyrazolo[1,5-a]pyrimidine]
[1]
  activity at 1 µM: 63.1%
Contact hypersensitivity
  response vs control in vivo at 3 mg/kg: 44.7%

## Oc1cc(CCl)nc2cc(-c3ccc(Sc4ccccc4)cc3)nn12 [(7), 7-Hydroxy-5-chloromethyl-2-(4-phenylthiophenyl)pyrazolo[1,5-a]pyrimidine]
Contact hypersensitivity
  response vs control in vivo at 20 mg/kg: 113%

## Oc1cc(CCl)nc2cc(-c3ccccc3)nn12 [(4), 7-Hydroxy-5-chloromethyl-2-phenylpyrazolo[1,5-a]pyrimidine]
Contact hypersensitivity
  response vs control in vivo at 20 mg/kg: 103%

## COCCc1cc(=O)n2ncc(-c3ccc(Sc4ccccc4)cc3)c2[nH]1 [Example 22, 4,7-dihydro-5-(2-methoxyethyl)-7-oxo-3-(4-phenylthiophenyl)pyrazolo[1,5-a]pyrimidine]
[1]
  activity at 1 µM: 60.3%
[2]
  viability at 1 µM: 101%

## Cc1cc(O)n2ncc(-c3ccc(Sc4ccccc4)cc3)c2n1 [(2), 7-Hydroxy-5-methyl-3-(4-phenylthiophenyl)pyrazolo[1,5-a]pyrimidine]
Contact hypersensitivity
  response vs control in vivo at 20 mg/kg: 90%

## COCCOCc1cc(=O)n2ncc(-c3ccc(Sc4ccccc4)cc3)c2[nH]1 [Example 14, 4,7-dihydro-5-(2-methoxyethoxymethyl)-7-oxo-3-(4-phenylthiophenyl)pyrazolo[1,5-a]pyrimidine]
[1]
  activity at 1 µM: 64.4%
[2]
  viability at 1 µM: 94.2%

## Oc1cc(C2CC2)nc2c(-c3ccc(Sc4ccccc4)cc3)cnn12 [(1), 7-Hydroxy-5-cyclopropyl-3-(4-phenylthiophenyl)pyrazolo[1,5-a]pyrimidine]
Contact hypersensitivity
  response vs control in vivo at 20 mg/kg: 99%

## C[C@]12C=CC(=O)C=C1CC[C@@H]1[C@@H]2[C@@H](O)C[C@@]2(C)[C@H]1CC[C@]2(O)C(=O)CO [Prednizolone]
Late asthmatic response; 30 mg/Kg orally 30 minutes before antigen, 8 animals
  AUC (4-7 hours) of sGaw reaction: 15.6 ± 3.5
